Laboratory results as given in US20080058383A1 (priority 2003, published 2008).
Where two headings read alike, the source gives them in different places.

Assays:
[1] = biological target: T1, Recombinant human androgen receptor (hAR) (Homo sapiens, UniProt P10275); experiment: AR competition binding assay (3H-mibolerone tracer)
T1 construct: made in house; host or cells: Sf9 insect cells
T1 sequence (P10275 1-920): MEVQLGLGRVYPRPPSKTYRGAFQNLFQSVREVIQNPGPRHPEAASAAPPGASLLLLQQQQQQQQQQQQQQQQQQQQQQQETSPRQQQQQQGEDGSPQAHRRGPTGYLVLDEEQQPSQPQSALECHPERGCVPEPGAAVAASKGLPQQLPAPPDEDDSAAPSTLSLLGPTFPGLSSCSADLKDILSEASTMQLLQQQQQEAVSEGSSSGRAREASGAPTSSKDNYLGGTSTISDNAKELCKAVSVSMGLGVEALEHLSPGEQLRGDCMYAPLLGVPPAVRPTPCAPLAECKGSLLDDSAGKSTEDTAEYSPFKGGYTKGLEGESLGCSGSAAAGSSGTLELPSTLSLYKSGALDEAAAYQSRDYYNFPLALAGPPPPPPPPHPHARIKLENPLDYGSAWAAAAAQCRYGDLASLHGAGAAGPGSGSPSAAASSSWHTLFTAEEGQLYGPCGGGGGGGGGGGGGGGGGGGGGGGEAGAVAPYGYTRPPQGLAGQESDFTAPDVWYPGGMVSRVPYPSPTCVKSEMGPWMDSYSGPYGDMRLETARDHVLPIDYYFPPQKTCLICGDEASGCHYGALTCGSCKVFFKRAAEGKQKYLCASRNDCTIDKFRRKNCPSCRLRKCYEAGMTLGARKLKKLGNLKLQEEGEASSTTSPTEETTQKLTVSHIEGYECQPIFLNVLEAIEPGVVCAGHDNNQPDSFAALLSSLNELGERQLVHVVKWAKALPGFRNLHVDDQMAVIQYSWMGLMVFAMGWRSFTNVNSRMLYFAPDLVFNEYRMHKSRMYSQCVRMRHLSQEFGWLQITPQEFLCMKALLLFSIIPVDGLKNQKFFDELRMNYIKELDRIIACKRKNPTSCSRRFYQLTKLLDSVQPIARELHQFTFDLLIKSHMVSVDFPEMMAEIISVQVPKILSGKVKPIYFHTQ
Procedure: Recombinant human androgen receptor (hAR) was extracted from Sf9 insect cells with buffer containing 1 mM EDTA, 20 mM K2HPO4, 8.7% glycerol, 20 mM Na2MoO4 and 12 mM MTG at 5*10^7 cells/ml. The cell debris was removed by centrifugation and the supernatant aliquoted and stored at −70° C.
An aliquot of AR extract was thawed on ice prior to use and diluted to approximately 0.2 nM (1 to 30 dilution) in buffer (100 mM KnHmPO4 pH 7.0, 1 mM EDTA, 8.7% glycerol, 20 mM Na2MoO4 and 1 mM DTT). The test ligands were diluted in DMSO as a dilution series of 10 concentrations in duplicate, with 1:5 dilution between each concentration. Tritiated mibolerone (^3H-Mib) was used as tracer compound and diluted to 1.6 nM in 1 mM EDTA, 20 mM Na2MoO4, 8.7% glycerol and 1 mM DTT. To a 96-well polypropylene-plate 110 μl/well of 1.6 nM ^3H-Mib, 10 μl/well test substance and 110 μl/well diluted AR was added. The plates were covered and incubated at +4° C. over night. The plates were harvested on filters to separate bound ligand from unbound ligand with a Tomtec Harvester. A prewet buffer containing 20 mM Kn(PO4) pH 7.6, 1 mM EDTA, v/v 0.5% polyethyleneimine was used to equilibrate the filter before filtering the samples and washing the filters with 20 mM Kn(PO4) pH 7.6, 1 mM EDTA 8 times. The filters were allowed to dry for 1 hour at +65° C. A scintillating wax was melted upon the filter and the radioactivity retained on the filter was measured in a Wallac Microbeta scintillation counter.
The affinity to AR was evaluated by a non-linear four-parameter logisitic model: b=(bmax−bmin)/(1+(IC50/I)̂S)+bmin, where bmax=total concentration of binding sites, bmin=non-specific binding, I=added concentration of binding inhibitor, IC50=concentration of binding inhibitor at half-maximal binding and S=slope factor. Table: Antagonist and partial antagonist and binding activity of androgen receptor modulator compounds.

[2] = biological target: T2, androgen receptor (CMV-hAR) in CV-1 cells (Homo sapiens, UniProt P10275); experiment: AR transactivation assay, antagonist mode (ARAF cells, ALP reporter, presence of 0.1 nM Mibolerone); assay type: cell-based; settings: for ARAF % ANTAGONIST: decrease in ALP activity in the presence of 0.1 nM Mibolerone
T2 construct: expressed in transfected cells
T2 sequence (P10275 1-920): T1 sequence (P10275 1-920)
Procedure: (§1) The agonist and antagonist properties of compounds were determined using a cell-based system expressing stably integrated androgen receptor and an androgen responsive reporter gene. CV-1 cells (kidney fibroblasts) stably expressing CMV-hAR and alkaline phosphatase (ALP) driven by an MMTV promoter containing an androgen response element were cultured in Dulbecco's Modified Eagle Medium (DMEM), low glucose supplemented with 10% fetal bovin serum, 1% L-glutamine, and 0.7% Hygromycine B. The stably integrated cells (ARAF) were trypsinized and resuspended in Opti-MEM 1 supplemented with 2% fetal bovine serum, 1% L-Glutamine, 50 μg/ml Gentamicine and 1% Pen/Strep. The cells were counted in a Birch chamber and diluted to a concentration of 100 000 cells/ml. The cells were then seeded out in 384 plates, 5000 cells/well in 50 μl seeding media and incubated overnight in 37 C, 5% CO2.
(§2) The next day, the seeding medium was removed from the cells and 20 μl induction media (Opti-MEM 1 supplemented with 1% L-Glutamine, 50 μg/ml Gentamicine and 1% Pen/Strep)+/−0.1 nM Mibolerone was added to the wells. 10 μl of test compound diluted in induction media was then added to the wells. The cells were incubated 48 hr in 37 C, 5% CO2.
(§3) After 48 hr 5 μl of cell medium was added to white 384 plates with 100 μl of ALP substrate buffer. The plates were incubated in 37 C for 20 minutes followed by incubation at room temperature for 10 minutes before each well was read in a μBETA machine. Agonist activity was calculated from the alkaline phosphatase activity induced in the absence of Mibolerone and compared to standard activation curve generated by Mibolerone alone. Antagonist activity was calculated from the decrease in ALP activity in the presence of 0.1 nM Mibolerone. EC50 and IC50 values were calculated by using a non-linear four-parameter fit as described above.

[3] = biological target: T2, androgen receptor (CMV-hAR) in CV-1 cells; experiment: AR transactivation assay, agonist mode (ARAF cells, ALP reporter, absence of Mibolerone); assay type: cell-based; settings: for ARAF % AGONIST: ALP activity in absence of Mibolerone compared to standard activation curve of Mibolerone alone
Procedure: as §1, §2, §3

[4] = CV-1 cells stably expressing hAR and MMTV-ALP, presence of 0.1 nM Mibolerone, 48 hr, read-out: ARAF IC50
[5] = CV-1 cells stably expressing hAR and MMTV-ALP, absence of Mibolerone, 48 hr, read-out: ARAF EC50
[6] = competition with 3H-Mib, hAR extract from Sf9 cells, +4° C. over night, read-out: AR_LT IC50

## CCCC(CO)Nc1ccc([N+](=O)[O-])c(C(F)(F)F)c1 (centres unmarked) [Example-42]
[1]
  IC50: 0.486 µM
[2]; [4]
  IC50: 0.493 µM
[2]
  ARAF % ANTAGONIST: 92%

## CCCC[C@@H](CO)Nc1ccc([N+](=O)[O-])c(C)n1 [Example-60]
[3]
  ARAF % AGONIST: 9.3%
[3]; [5]
  EC50: 0.336 µM
[1]; [6]
  IC50: 0.0683 µM
[2]; [4]
  IC50: 0.0274 µM
[2]
  ARAF % ANTAGONIST: 79.3%

## Cc1nc(N[C@H](CO)CSCc2ccccc2)ccc1[N+](=O)[O-] [Example-65]
[3]
  ARAF % AGONIST: 7%
[3]; [5]
  EC50: 1.87 µM
[1]; [6]
  IC50: 0.0062 µM
[2]; [4]
  IC50: 0.078 µM
[2]
  ARAF % ANTAGONIST: 89.2%

## CCCC(CO)Nc1ccc([N+](=O)[O-])c(C)c1 (centres unmarked) [Example-78]
[3]
  ARAF % AGONIST: 25%
[3]; [5]
  EC50: 0.28 µM
[1]; [6]
  IC50: 0.0545 µM
[2]; [4]
  IC50: 0.0258 µM
[2]
  ARAF % ANTAGONIST: 65.4%

## Cc1cc(NCCNc2ccc([N+](=O)[O-])cn2)ccc1[N+](=O)[O-] [Example-86]
[1]; [6]
  IC50: 0.443 µM
[2]; [4]
  IC50: 0.351 µM
[2]
  ARAF % ANTAGONIST: 100%

## CC[C@H](C)[C@@H](CO)Nc1ccc([N+](=O)[O-])c(C)n1 [Example-61]
[1]; [6]
  IC50: 0.0893 µM
[2]
  IC50: 0.0683 µM
  ARAF % ANTAGONIST: 87.4%

## CC(C)[C@@H](CO)Nc1ccc([N+](=O)[O-])c(C(F)(F)F)c1 [Example-30]
[3]
  EC50: 1.07 µM
  ARAF % AGONIST: 7.3%
[1]; [6]
  IC50: 0.113 µM
[2]
  IC50: 0.0683 µM
  ARAF % ANTAGONIST: 88.7%

## Cc1nc(NC(C)(C)CO)ccc1[N+](=O)[O-] [Example-8, 2-Methyl-2-(6-methyl-5-nitro-pyridin-2-ylamino)-propan-1-ol]
[3]
  ARAF % AGONIST: 10.6%
[3]; [5]
  EC50: 0.374 µM
[1]; [6]
  IC50: 0.241 µM
[2]; [4]
  IC50: 0.0223 µM
[2]
  ARAF % ANTAGONIST: 82.5%

## O=[N+]([O-])c1ccc(N[C@H](CO)CSCc2ccccc2)cc1C(F)(F)F [Example-41]
[1]; [6]
  IC50: 0.0651 µM
[2]; [4]
  IC50: 0.49 µM
[2]
  ARAF % ANTAGONIST: 71.7%

## N#Cc1ccc(NC2(CO)CCCC2)cc1C(F)(F)F [Example-19, 4-(1-Hydroxymethyl-cyclopentylamino)-2-trifluoromethyl-benzonitrile]
[1]; [6]
  IC50: 0.13 µM
[2]
  IC50: 0.0224 µM
  ARAF % ANTAGONIST: 95.6%

## CCC[C@@H](CO)Nc1ccc([N+](=O)O)cc1 [Example-103, (S)-2-(4-Nitro-phenylamino)-pentan-1-ol]
[1]; [6]
  IC50: 0.0987 µM
[2]; [4]
  IC50: 0.136 µM
[2]
  ARAF % ANTAGONIST: 92.9%

## CC(C)(CO)Nc1ccc([N+](=O)[O-])c(C(F)(F)F)c1 [Example-1, 2-Methyl-2-(4-nitro-3-trifluoromethyl-phenylamino)-propan-1-ol]
[3]
  EC50: 0.0268 µM
  ARAF % AGONIST: 51.7%
[1]; [6]
  IC50: 0.0228 µM
[2]
  IC50: 0.0021 µM
  ARAF % ANTAGONIST: 33.1%

## Cc1cc(NC(C)(C)CO)ccc1[N+](=O)[O-] [Example-5]
[3]
  ARAF % AGONIST: 29.3%
[3]; [5]
  EC50: 0.0817 µM
[1]; [6]
  IC50: 0.0381 µM
[2]; [4]
  IC50: 0.0072 µM
[2]
  ARAF % ANTAGONIST: 61%

## CCC[C@@H](CO)Nc1ccc([N+](=O)[O-])cc1Br [Example-106, (S)-2-(2-Bromo-4-nitro-phenylamino)-pentan-1-ol]
[1]
  IC50: 0.17 µM
[2]; [4]
  IC50: 0.241 µM
[2]
  ARAF % ANTAGONIST: 88.2%
